For orientation: melting point means the temperature, or range, at which the solid turns liquid.

As for `CC(=O)N1CCN2c3c(cccc3C3CCCC32)C1` (racemic) [Example 3, 3-Acetyl-1,2,3,4,8,9,10,10a-octahydro-7bH-cyclopenta[b][1,4]diazepino[6,7,1-hi]indole], the melting point was 111 to 113 °C.

Compound `c1cc2c3c(c1)c1c(n3CCNC2)CCC1` [Example 1, 1,2,3,4,9,10-Hexahydro-8H-cyclopenta[b][4,1]diazepino[6,7,1-hi]indole] came in with a melting point of 66 to 68 °C.

(Values after US6784172B2, “Processes for preparation of cyclopenta[b][1,4]diazepino[6,7,1-hi]indoles and derivatives” (Wyeth, priority 2000, dated 2004).)
